# Laboratory results from patent publication US10940150B2, “Thymine derivatives and quinazoline-dione derivatives for the inhibition of HSP27” (TECHNISCHE UNIVERSITAET DRESDEN, priority 2014, dated 2021).
# What was measured:
# HSP27 = HSP27 (Homo sapiens, UniProt P04792); test: Capillary electrophoresis of heat-denatured citrate synthase protein precipitates; format: biochemical; details: for Rel. quantity of protein prec. CS: 10 μmol/L
# Procedure: (§1) Since the heat-denatured protein aggregates of the citrate synthase from Example 1 are not water-soluble, these can be separated completely from the supernatant by means of centrifugation at room temperature at 16,000×g, 10 min. By using capillary electrophoresis, the compositions of the separated precipitates can be shown and quantified. The relative quantity of protein of precipitated citrate synthase serves as a measure of the efficacy of the test substances.
# (§2) In each case, 481 nmol/L HSP27 and 1.44 μmol/L citrate synthase in 40 mmol/L HEPES buffer, pH 7.4, were employed. The relative quantity of protein of the precipitated citrate synthase in each case was normalized using a defined quantity of BSA as internal standard. The relative quantity of protein that precipitated when using 750 μmol/L BVDU was set at 1. The other test substances (2 representatives of phenothiazine derivatives of general formula (V), 2 representatives of purine derivatives of formula (I) or (II)) were each employed at a concentration of 10 μmol/L.
# as §1, with “Example 2” for “Example 1”
# as §2, with “nM” for “nmol/L”, “thymine” for “purine”, “were” for “were each”, “μmol/L in each case.” for “μmol/L.”
# Otherwise, the experiments were performed as described above: […]
# RPMI-8226 cells = test: Development of resistance to bortezomib in RPMI-8226 cells; format: cell-based; details: bortezomib 0.075-0.275 ng/ml + 1 μmol/L test substance (FIG. 9a)
# [1] = 10 μmol/L vs 750 μmol/L BVDU, 43° C. for 70 minutes (Table 3)
# [2] = 43° C. for 70 minutes, relative to 750 μmol/L BVDU = 1 (Table 3)
# HSP27, sequence (P04792 whole entry): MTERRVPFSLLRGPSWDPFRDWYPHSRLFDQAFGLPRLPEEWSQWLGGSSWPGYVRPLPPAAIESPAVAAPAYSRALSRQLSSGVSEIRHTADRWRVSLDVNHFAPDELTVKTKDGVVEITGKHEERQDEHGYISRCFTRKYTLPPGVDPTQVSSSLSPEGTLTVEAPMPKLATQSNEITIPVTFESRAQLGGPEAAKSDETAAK
SMILES,Efficacy compared with BVDU (HSP27; [1]) [x],Rel. quantity of protein prec. CS (HSP27; [2]),other results
"Cc1cn(C2C[C@H](n3cc(-c4cccc(Br)c4)nn3)[C@@H](CO)O2)c(=O)[nH]c1=O (stereo partly drawn) [1-[(4S,5S)-4-[4-(3-Bromophenyl)-1H-1,2,3-triazol-1-yl]-5-(hydroxymethyl)oxolan-2-yl]-5-methyl-1,2,3,4-tetrahydropyrimidine-2,4-dione]",60.88,0.81,–
"Cc1cn(C2C[C@H](n3cc(-c4ccc(Br)cc4)nn3)[C@@H](CO)O2)c(=O)[nH]c1=O (stereo partly drawn) [1-[(4S,5S)-4-[4-(4-Bromophenyl)-1,2,3-triazol-1-yl]-5-(hydroxymethyl)oxolan-2-yl]-5-methyl-3H-pyrimidine-2,4-dione]",48.14,0.64,–
"COc1ccc(-c2cn([C@H]3CC(n4cc(C)c(=O)[nH]c4=O)O[C@@H]3CO)nn2)cc1 (stereo partly drawn) [1-[(4S,5S)-5-(Hydroxymethyl)-4-[4-(4-methoxyphenyl)-1,2,3-triazol-1-yl]oxolan-2-yl]-5-methyl-3H-pyrimidine-2,4-dione]",55.89,0.75,–
"Cc1cn(CC=CCNC(=O)Cc2ccc(-c3ccccc3)cc2)c(=O)[nH]c1=O [2-biphenyl-4-yl-N-[4-(5-methyl-2,4-dioxo-3,4-dihydro-2H-pyrimidin-1-yl)-but-2-enyl]-acetamide]",–,–,"development of resistance to the cytostatic agent bortezomib (RPMI-8226 cells): significantly inhibited; living cells at the end of the experiment (RPMI-8226 cells; without HSP27 inhibitor 510,000 cells/ml): 380,000 living cells per ml medium; times higher activity than BVDU for the inhibition of the HSP27 protein (HSP27; 10 μmol/L vs 750 μmol/L BVDU, 43° C. for 120 minutes): 61 times; Efficacy compared with BVDU (HSP27; 10 μmol/L vs 750 μmol/L BVDU, 43° C. for 120 minutes (Table 2)): 60.75 x; Rel. quantity of protein prec. CS (HSP27; 43° C. for 120 minutes, relative to 750 μmol/L BVDU = 1 (Table 2)): 0.81; BVDU equivalent dose (HSP27; based on 100 mg BVDU): 1.6 mg"
"CCCCc1cn([C@H]2C[C@H](n3cc(C)c(=O)[nH]c3=O)O[C@@H]2CO)nn1 [3′-(4-Butyl-1H-1,2,3-triazol-1-yl)-3′-deoxythymidine]",57.08,0.76,–
"CCCCCc1cn([C@H]2C[C@H](n3cc(C)c(=O)[nH]c3=O)O[C@@H]2CO)nn1 [3′-Deoxy-3′-(4-pentyl-1H-1,2,3-triazol-1-yl)thymidine]",52.57,0.70,–
"Cc1cn([C@H]2C[C@H](n3cc(-c4ccccc4)nn3)[C@@H](CO)O2)c(=O)[nH]c1=O [3′-Deoxy-3′-(4-phenyl-1H-1,2,3-triazol-1-yl)thymidine]",59.07,0.79,–
"CCCc1cn([C@H]2C[C@H](n3cc(C)c(=O)[nH]c3=O)O[C@@H]2CO)nn1 [3′-Deoxy-3′-(4-propyl-1H-1,2,3-triazol-1-yl)thymidine]",59.59,0.79,–
"Cc1cn([C@H]2C[C@H](n3cc(C(C)(C)C)nn3)[C@@H](CO)O2)c(=O)[nH]c1=O [3′-Deoxy-3′-[4-(2-methyl-2-propanyl)-1H-1,2,3-triazol-1-yl]thymidine]",46.01,0.61,–
"Cc1cn([C@H]2C[C@H](n3cc(CCc4ccccc4)nn3)[C@@H](CO)O2)c(=O)[nH]c1=O [3′-Deoxy-3′-[4-(2-phenylethyl)-1H-1,2,3-triazol-1-yl]-thymidine]",55.67,0.74,–
"Cc1cn([C@H]2C[C@H](n3cc(-c4ccccn4)nn3)[C@@H](CO)O2)c(=O)[nH]c1=O [3′-Deoxy-3′-[4-(2-pyridinyl)-1H-1,2,3-triazol-1]-yl]thymidine]",62.86,0.84,–
"Cc1cn([C@H]2C[C@H](n3cc(-c4ccc(Cl)c(Cl)c4)nn3)[C@@H](CO)O2)c(=O)[nH]c1=O [3′-Deoxy-3′-[4-(3,4-dichlorophenyl)-1H-1,2,3-triazol-1-yl]-thymidine]",64.21,0.86,–
"Cc1cn([C@H]2C[C@H](n3cc(-c4ccc(F)cc4)nn3)[C@@H](CO)O2)c(=O)[nH]c1=O [3′-Deoxy-3′-[4-(4-fluorophenyl)-1H-1,2,3-triazol-1-yl]-thymidine]",49.69,0.66,–
"Cc1cn([C@H]2C[C@H](n3cc(-c4ccc(Cl)cc4)nn3)[C@@H](CO)O2)c(=O)[nH]c1=O [3′-[4-(4-Chlorophenyl)-1H-1,2,3-triazol-1-yl]-3′-deoxythymidine]",50.53,0.67,–
"Cc1cn([C@H]2C[C@H](n3cc(CC4CCCC4)nn3)[C@@H](CO)O2)c(=O)[nH]c1=O [3′-[4-(Cyclopentylmethyl)-1H-1,2,3-triazol-1-yl]-3′-deoxythymidine]",49.63,0.66,–
"Cc1cn(CCCCNC(=O)C(c2ccccc2)c2ccccc2)c(=O)[nH]c1=O [N-[4-(5-Methyl-2,4-dioxo-3H-pyrimidin-1-yl)butyl]-2,2-diphenylacetamide]",58.97,0.79,–
"Cc1cn(CCCCNC(=O)Cc2ccc(-c3ccccc3)cc2)c(=O)[nH]c1=O [N-[4-(5-Methyl-2,4-dioxo-3H-pyrimidin-1-yl)butyl]-2-(4-phenylphenyl)acetamide]",50.52,0.67,–
"Cc1cn(CCCCNC(=O)Cc2ccc3ccccc3c2)c(=O)[nH]c1=O [N-[4-(5-Methyl-2,4-dioxo-3H-pyrimidin-1-yl)butyl]-2-(naphthalen-2-yl)acetamide]",56.36,0.75,–
"Cc1cn(CCCCNC(=O)C2c3ccccc3-c3ccccc32)c(=O)[nH]c1=O [N-[4-(5-Methyl-2,4-dioxo-3H-pyrimidin-1-yl)butyl]-9H-fluorene-9-carboxamide]",43.30,0.58,–
"Cc1cn(CCCCNC(=O)C2c3ccccc3Oc3ccccc32)c(=O)[nH]c1=O [N-[4-(5-Methyl-2,4-dioxo-3H-pyrimidin-1-yl)butyl]-9H-xanthene-9-carboxamide]",51.16,0.68,–
"O=C(Cc1ccc(-c2ccccc2)cc1)NC/C=C\Cn1ccc(=O)[nH]c1=O [N-[(2Z)-4-(2,4-Dioxo-3H-pyrimidin-1-yl)but-2-en-1-yl]-2-(4-phenylphenyl)acetamide]",66.15,0.88,–
"O=C(Cc1ccc2ccccc2c1)NC/C=C\Cn1ccc(=O)[nH]c1=O [N-[(2Z)-4-(2,4-Dioxo-3H-pyrimidin-1-yl)but-2-en-1-yl]-2-(naphthalen-2-yl)acetamide]",86.25,1.15,–
"O=C(NC/C=C\Cn1ccc(=O)[nH]c1=O)C1c2ccccc2OC2C=CC=CC21 (stereo not drawn) [N-[(2Z)-4-(2,4-Dioxo-3H-pyrimidin-1-yl)but-2-en-1-yl]-9,9a-dihydro-4aH-xanthene-9-carboxamide]",63.38,0.85,–
"Cc1cn(C/C=C\CNC(=O)C(c2ccccc2)c2ccccc2)c(=O)[nH]c1=O [N-[(2Z)-4-(5-Methyl-2,4-dioxo-3H-pyrimidin-1-yl)but-2-en-1-yl]-2,2-diphenylacetamide]",61.19,0.82,–
"Cc1cn(C/C=C\CNC(=O)Cc2cccc3ccccc23)c(=O)[nH]c1=O [N-[(2Z)-4-(5-Methyl-2,4-dioxo-3H-pyrimidin-1-yl)but-2-en-1-yl]-2-(naphthalen-1-yl)acetamide]",60.44,0.81,–
"Cc1cn(C/C=C\CNC(=O)Cc2ccc3ccccc3c2)c(=O)[nH]c1=O [N-[(2Z)-4-(5-Methyl-2,4-dioxo-3H-pyrimidin-1-yl)but-2-en-1-yl]-2-(naphthalen-2-yl)acetamide]",62.51,0.83,–
"Cc1cn(C/C=C\CNC(=O)C2c3ccccc3-c3ccccc32)c(=O)[nH]c1=O [N-[(2Z)-4-(5-Methyl-2,4-dioxo-3H-pyrimidin-1-yl)but-2-en-1-yl]-9H-fluorene-9-carboxamide]",64.31,0.86,–
"Cc1cn(C/C=C\CNC(=O)c2cccc3ccccc23)c(=O)[nH]c1=O [N-[(2Z)-4-(5-Methyl-2,4-dioxo-3H-pyrimidin-1-yl)but-2-en-1-yl]naphthalene-1-carboxamide]",58.73,0.78,–
